According to ChEMBL document CHEMBL1153128, “Synthesis of a hydrolytically stable, fluorescent-labeled ATP analog as a tool for probing adenylyl cyclases” (Bioorg Med Chem Lett, 2010):
pKi: −log10 of the molar value.

Target: T1, Calmodulin-sensitive adenylate cyclase (Bacillus anthracis, UniProt P40136)
T1 sequence (P40136 whole entry): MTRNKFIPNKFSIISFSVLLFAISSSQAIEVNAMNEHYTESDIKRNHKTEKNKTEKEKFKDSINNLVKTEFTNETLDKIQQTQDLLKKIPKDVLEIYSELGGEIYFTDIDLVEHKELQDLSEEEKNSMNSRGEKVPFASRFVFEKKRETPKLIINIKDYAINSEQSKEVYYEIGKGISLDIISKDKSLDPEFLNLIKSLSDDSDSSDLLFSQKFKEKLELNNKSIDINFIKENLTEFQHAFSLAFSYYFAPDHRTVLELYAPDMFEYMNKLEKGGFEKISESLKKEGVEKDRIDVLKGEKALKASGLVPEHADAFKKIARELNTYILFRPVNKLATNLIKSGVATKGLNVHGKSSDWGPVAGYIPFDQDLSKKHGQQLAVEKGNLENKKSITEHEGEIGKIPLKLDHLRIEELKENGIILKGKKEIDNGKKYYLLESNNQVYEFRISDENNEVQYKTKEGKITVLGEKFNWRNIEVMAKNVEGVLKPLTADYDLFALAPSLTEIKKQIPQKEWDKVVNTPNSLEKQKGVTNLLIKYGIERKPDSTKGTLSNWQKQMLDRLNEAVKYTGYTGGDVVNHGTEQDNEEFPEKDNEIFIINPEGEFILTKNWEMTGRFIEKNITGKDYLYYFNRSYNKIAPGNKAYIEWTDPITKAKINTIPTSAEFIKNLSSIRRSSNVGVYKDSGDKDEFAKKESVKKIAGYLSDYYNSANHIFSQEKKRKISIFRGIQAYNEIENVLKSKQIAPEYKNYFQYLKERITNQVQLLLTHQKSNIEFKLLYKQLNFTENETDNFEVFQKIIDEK
Assay: Inhibition of Bacillus anthracis edema factor catalytic domain by radiometric assay

**Q.** `CNc1ccccc1C(=O)O[C@H]1[C@@H](O)[C@H](n2cnc3c(N)ncnc32)O[C@@H]1CO[P@@](=O)(O)O[P@](=O)(O)OP(=O)(O)O` was tested. Which pKi did it give?
**A.** 6.01

**Q.** `CNc1ccccc1C(=O)O[C@@H]1[C@H](O)[C@@H](COP(=O)(O)OP(=O)(O)OP(=O)(O)O)O[C@H]1n1ccc(N)nc1=O` was tested. Which pKi did it give?
**A.** 7.00

**Q.** `CNc1ccccc1C(=O)N[C@@H]1[C@H](O)[C@@H](COP(=O)(O)OP(=O)(O)C(Cl)(Cl)P(=O)(O)O)O[C@H]1n1cnc2c(N)ncnc21` was tested. Which pKi did it give?
**A.** 5.05
